From patent publication US9718788B2, “Heteroaryl compounds useful as inhibitors of E1 activating enzymes” (MILLENNIUM PHARMACEUTICALS, INC., priority 2006, dated 2017)

Target: T1, recombinant human NAE enzyme (Homo sapiens, UniProt Q8TBC4)
T1 construct: His (N); made in house; host or cells: Sf9 insect cells (baculovirus, Bac-to-Bac)
T1 sequence (Q8TBC4 1-463): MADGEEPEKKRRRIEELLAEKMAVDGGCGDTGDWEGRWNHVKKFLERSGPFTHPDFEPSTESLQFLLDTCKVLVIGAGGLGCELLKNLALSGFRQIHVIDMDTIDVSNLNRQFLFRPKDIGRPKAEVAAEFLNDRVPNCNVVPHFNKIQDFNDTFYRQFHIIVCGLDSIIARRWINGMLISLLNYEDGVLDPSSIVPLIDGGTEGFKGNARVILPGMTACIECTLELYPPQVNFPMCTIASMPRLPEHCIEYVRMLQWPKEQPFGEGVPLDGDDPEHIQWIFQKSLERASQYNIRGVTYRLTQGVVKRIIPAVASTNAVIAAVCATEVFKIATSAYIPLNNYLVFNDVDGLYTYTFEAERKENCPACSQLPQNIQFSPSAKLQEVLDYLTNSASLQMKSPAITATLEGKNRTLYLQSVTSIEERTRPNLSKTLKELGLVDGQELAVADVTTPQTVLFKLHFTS
T1 sequence (Q13564 1-534 partner): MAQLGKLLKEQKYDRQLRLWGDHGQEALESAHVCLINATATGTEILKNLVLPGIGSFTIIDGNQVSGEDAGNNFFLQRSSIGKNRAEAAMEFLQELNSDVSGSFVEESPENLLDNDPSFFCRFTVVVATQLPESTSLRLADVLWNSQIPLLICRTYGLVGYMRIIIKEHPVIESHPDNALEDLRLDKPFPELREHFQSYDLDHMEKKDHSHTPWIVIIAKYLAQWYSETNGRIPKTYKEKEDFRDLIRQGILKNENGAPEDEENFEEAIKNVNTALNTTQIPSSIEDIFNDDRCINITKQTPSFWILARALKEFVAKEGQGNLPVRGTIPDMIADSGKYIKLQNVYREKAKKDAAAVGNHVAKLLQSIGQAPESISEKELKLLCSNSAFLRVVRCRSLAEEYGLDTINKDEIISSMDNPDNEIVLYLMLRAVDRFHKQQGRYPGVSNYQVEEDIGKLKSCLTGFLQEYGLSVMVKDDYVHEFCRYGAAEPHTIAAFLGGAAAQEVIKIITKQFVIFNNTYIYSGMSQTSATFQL
Assay: Nedd8-Activating Enzyme (NAE) HTRF Assay
Type: biochemical
Settings: 20 μM ATP
Method in brief: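 Recombinant human NAE (NAEα/His-NAEβ from Sf9 cells) at 0.20 nM with 20 μM ATP, 0.01 μM Ubc12-GST and 0.075 μM Nedd8-Flag in HEPES pH 7.5, 105 min at 24° C. EDTA stop; Eu-anti-FLAG/APC-anti-GST HTRF read after 1 h.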

SMILES	IC50 (bound given in nM)	IC50 (bound given in μM)
NS(=O)(=O)OC[C@@H]1C[C@@H](Oc2ncnc3nc(-c4c[nH]c5ccccc45)[nH]c23)C[C@@H]1O [Compound I-140, ((1S,2S,4R)-2-hydroxy-4-{[8-(1H-indol-3-yl)-7H-purin-6-yl]oxy}cyclopentyl)methyl sulfamate]	≤ 500 nM	
NS(=O)(=O)OC[C@@H]1C[C@@H](Oc2cc(OCc3ccc4ccccc4c3)ncn2)C[C@@H]1O [Compound I-141, ((1S,2S,4R)-2-hydroxy-4-{[6-(2-naphthylmethoxy)pyrimidin-4-yl]oxy}cyclopentyl)methyl sulfamate]	> 500 nM	< 10000 nM
CO[C@H]1CCc2ccccc2[C@H]1Nc1cc(O[C@@H]2C[C@@H](COS(N)(=O)=O)[C@@H](O)C2)ncn1 [Compound I-142, {(1S,2S,4R)-2-hydroxy-4-[(6-{[(1R,2S)-2-methoxy-1,2,3,4-tetrahydronaphthalen-1-yl]amino}pyrimidin-4-yl)oxy]cyclopentyl}methyl sulfamate]	≤ 500 nM	
CO[C@@H]1CCc2ccccc2[C@@H]1Nc1cc(O[C@@H]2C[C@@H](COS(N)(=O)=O)[C@@H](O)C2)ncn1 [Compound I-143, {(1S,2S,4R)-2-hydroxy-4-[(6-{[(1S,2R)-2-methoxy-1,2,3,4-tetrahydronaphthalen-1-yl]amino}pyrimidin-4-yl)oxy]cyclopentyl}methyl sulfamate]	≤ 500 nM	
NS(=O)(=O)OC[C@H]1C[C@@H](Nc2ccnc(C(=O)N[C@H]3CCc4ccccc43)c2)[C@H](O)[C@@H]1O [Compound I-144, {(1R,2R,3S,4R)-4-[(2-{[(1S)-2,3-dihydro-1H-inden-1-ylamino]carbonyl}pyridin-4-yl)-amino]-2,3-dihydroxycyclopentyl}methyl sulfamate]		> 10000 nM
NS(=O)(=O)OC[C@H]1C[C@@H](Nc2ccnc(C(=O)N3CCc4ccccc43)c2)[C@H](O)[C@@H]1O [Compound I-145, ((1R,2R,3S,4R)-4-{[2-(2,3-dihydro-1H-indol-1-ylcarbonyl)pyridin-4-yl]amino}-2,3-dihydroxycyclopentyl)methyl sulfamate]		> 10000 nM
NS(=O)(=O)OC[C@@H]1C[C@@H](N2CCc3c(N[C@H]4CCc5ccccc54)ncnc32)C[C@@H]1O [Compound I-146, ((1S,2S,4R)-4-{4-[(1S)-2,3-dihydro-1H-inden-1-ylamino]-5,6-dihydro-7H-pyrrolo[2,3-d]pyrimidin-7-yl}-2-hydroxycyclopentyl)methyl sulfamate]	≤ 500 nM	
NS(=O)(=O)OC[C@@H]1C[C@@H](Nc2ncnc(N[C@@H]3c4ccccc4CC3(F)F)n2)C[C@@H]1O [Compound I-147, {(1S,2S,4R)-4-[(4-{[(1R)-2,2-difluoro-2,3-dihydro-1H-inden-1-yl]amino}-1,3,5-triazin-2-yl)amino]-2-hydroxycyclopentyl}methyl sulfamate]	≤ 500 nM	
COc1ccc2c(c1)[C@H](Nc1cc(O[C@@H]3C[C@@H](COS(N)(=O)=O)[C@@H](O)C3)ncn1)[C@H](OC)CC2 [Compound I-148, {(1S,2S,4R)-4-[(6-{[(1S,2R)-2,7-dimethoxy-1,2,3,4-tetrahydronaphthalen-1-yl]amino}-pyrimidin-4-yl)oxy]-2-hydroxycyclopentyl}methyl sulfamate]	> 500 nM	< 10000 nM
COc1ccc2c(c1)[C@@H](Nc1cc(O[C@@H]3C[C@@H](COS(N)(=O)=O)[C@@H](O)C3)ncn1)[C@@H](OC)CC2 [Compound I-149, {(1S,2S,4R)-4-[(6-{[(1R,2S)-2,7-dimethoxy-1,2,3,4-tetrahydronaphthalen-1-yl]amino}-pyrimidin-4-yl)oxy]-2-hydroxycyclopentyl}methyl sulfamate]	> 500 nM	< 10000 nM
CO[C@H]1CC(C)(C)c2ccccc2[C@H]1Nc1cc(O[C@@H]2C[C@@H](COS(N)(=O)=O)[C@@H](O)C2)ncn1 [Compound I-150, {(1S,2S,4R)-2-hydroxy-4-[(6-{[(1R,2S)-2-methoxy-4,4-dimethyl-1,2,3,4-tetrahydronaphthalen-1-yl]amino}pyrimidin-4-yl)oxy]cyclopentyl}methyl sulfamate]	≤ 500 nM	
CO[C@@H]1CC(C)(C)c2ccccc2[C@@H]1Nc1cc(O[C@@H]2C[C@@H](COS(N)(=O)=O)[C@@H](O)C2)ncn1 [Compound I-151, {(1S,2S,4R)-2-hydroxy-4-[(6-{[(1S,2R)-2-methoxy-4,4-dimethyl-1,2,3,4-tetrahydronaphthalen-1-yl]amino}pyrimidin-4-yl)oxy]cyclopentyl}methyl sulfamate]	≤ 500 nM	
NS(=O)(=O)OC[C@H]1CC[C@H](Oc2ncnc3[nH]c(-c4cccc5ccccc45)nc23)C1 [Compound I-152, ((1S,3S)-3-{[8-(1-naphthyl)-9H-purin-6-yl]oxy}cyclopentyl)methyl sulfamate]	> 500 nM	< 10000 nM
NS(=O)(=O)OC[C@@H]1C[C@@H](Nc2ncnc(N[C@H]3CCc4ccccc43)n2)C[C@@H]1O [Compound I-153, [(1S,2S,4R)-4-({4-[(1S)-2,3-dihydro-1H-inden-1-ylamino}-1,3,5-triazin-2-yl}amino)-2-hydroxycyclopentyl]methyl sulfamate]	≤ 500 nM	
